In brackets after ≈: the same amount, converted by molar mass. Read-outs that look alike come from different tables or passages of the source. Non-standard residues stand in square brackets, D forms with d. Residues, ends and D or L forms follow the SMILES beside them. ξ: configuration not given here. dTrp(5-F) = N[C@H](Cc1c[nH]c2ccc(F)cc12)C(=O)O; ξTrp(5-OMe) = COc1ccc2[nH]cc(CC(N)C(=O)O)c2c1; ξTrp(7-aza) = NC(Cc1c[nH]c2ncccc12)C(=O)O
Experiments:
Type in all cases: cell-based
[1] = system: Acinetobacter baumannii (ATCC 17978)
Source text: (§1) The bacterial strains for the antimicrobial assay were obtained from the ATCC (American Type Culture Collection, Manassas, VA, USA) and NCTC (National Collection of Type Cultures, Salisbury, UK). Gram-negative strains were Pseudomonas aeruginosa (ATCC 27853), Escherichia coli (ATCC 8739, ATCC 35218, and ATCC 25922), Salmonella enterica (ATCC 13076), Klebsiella pneumoniae (NCTC 13440), Acinetobacter baumannii (ATCC 17978) and the Gram-positive strains were Enterococcus faecalis (ATCC 29212), Listeria monocytogenes (ATCC 19111), and Staphylococcus aureus (HNCMO112011 and ATCC 25923).
(§2) Determination of antibacterial activity for the peptides was carried out by utilizing a minimum bactericidal concentration (MBC) bioassay. Synthesized peptides were dissolved in sterile water and used from 25 to 0.125 μM in 2-fold dilution series and incubated with ~10^7 log phase bacteria in Potassium-Phosphate Buffer (PPB, pH: 7.4) for three hours as described earlier. After that, 5 μl of each sample was placed on LB agar and the growth of bacteria was monitored after overnight incubation at 37 °C. The lowest concentration of the antimicrobial agents that completely eliminated viable bacteria was considered the minimal bactericidal concentration (MBC).

[2] = system: Enterococcus faecalis (ATCC 29212)
Source text: as §1, §2

[3] = system: Escherichia coli (ATCC 8739)
Source text: as §1, §2

[4] = system: Klebsiella pneumoniae (NCTC 13440)
Source text: as §1, §2

[5] = system: Listeria monocytogenes (ATCC 19111)
Source text: as §1, §2

[6] = system: Pseudomonas aeruginosa (ATCC 27853)
Source text: as §1, §2

[7] = system: Salmonella enterica (ATCC 13076)
Source text: as §1, §2

[8] = system: Staphylococcus aureus (HNCMO112011)
Source text: as §1, §2

[9] = system: tested bacteria (ESKAPE pathogens, Listeria monocytogenes, Salmonella enterica)
Source text: as §1, §2

[10] = summary over the tested bacterial species, 3 h in PPB pH 7.4

Row | Compound | Minimal bactericidal concentration (MBC) A. b. ([1]; ATCC 17978, 3 h, pH 7.4) [µM] | Minimal bactericidal concentration (MBC) E. f. ([2]; ATCC 29212, 3 h, pH 7.4) [µM] | Minimal bactericidal concentration (MBC) E. c. ([3]; ATCC 8739, 3 h, pH 7.4) [µM] | Minimal bactericidal concentration (MBC) K. p. ([4]; NCTC 13440, 3 h, pH 7.4) [µM] | Minimal bactericidal concentration (MBC) L. m. ([5]; ATCC 19111, 3 h, pH 7.4) [µM] | Minimal bactericidal concentration (MBC) P. a. ([6]; ATCC 27853, 3 h, pH 7.4) [µM] | Minimal bactericidal concentration (MBC) S. e. ([7]; ATCC 13076, 3 h, pH 7.4) [µM] | Minimal bactericidal concentration (MBC) S. a. ([8]; HNCMO112011, 3 h, pH 7.4) [µM] | MBC against most or all of the tested bacteria [9, 10] | MBC against most or all of the tested bacteria ([9]; 3 h, pH 7.4) [µM] | Minimal bactericidal concentration (MBC) A. b. ([1]; Acinetobacter baumannii ATCC 17978, ~10^7 log phase bacteria, 3 h in PPB pH 7.4, peptide 25 to 0.125 μM 2-fold series, plated on LB agar, overnight 37 °C) [µM] | Minimal bactericidal concentration (MBC) E. f. ([2]; Enterococcus faecalis ATCC 29212, ~10^7 log phase bacteria, 3 h in potassium-phosphate buffer (PPB) pH 7.4, peptide 25 to 0.125 μM 2-fold series, 5 μl on LB agar, overnight 37 °C) [µM] | Minimal bactericidal concentration (MBC) E. c. ([3]; Escherichia coli ATCC 8739, ~10^7 log phase bacteria, 3 h in PPB pH 7.4, peptide 25 to 0.125 μM 2-fold series, plated on LB agar, overnight 37 °C) [µM] | Minimal bactericidal concentration (MBC) K. p. ([4]; Klebsiella pneumoniae NCTC 13440, ~10^7 log phase bacteria, 3 h in PPB pH 7.4, peptide 25 to 0.125 μM 2-fold series, plated on LB agar, overnight 37 °C) [µM] | Minimal bactericidal concentration (MBC) L. m. ([5]; Listeria monocytogenes ATCC 19111, ~10^7 log phase bacteria, 3 h in PPB pH 7.4, peptide 25 to 0.125 μM 2-fold series, plated on LB agar, overnight 37 °C) [µM] | Minimal bactericidal concentration (MBC) P. a. ([6]; Pseudomonas aeruginosa ATCC 27853, ~10^7 log phase bacteria, 3 h in PPB pH 7.4, peptide 25 to 0.125 μM 2-fold series, plated on LB agar, overnight 37 °C) [µM] | Minimal bactericidal concentration (MBC) S. e. ([7]; Salmonella enterica ATCC 13076, ~10^7 log phase bacteria, 3 h in PPB pH 7.4, peptide 25 to 0.125 μM 2-fold series, plated on LB agar, overnight 37 °C) [µM] | Minimal bactericidal concentration (MBC) S. a. ([8]; Staphylococcus aureus HNCMO112011, ~10^7 log phase bacteria, 3 h in PPB pH 7.4, peptide 25 to 0.125 μM 2-fold series, plated on LB agar, overnight 37 °C) [µM]
1 | CC[C@H](C)[C@H](NC(=O)[C@H](CCCCN)NC(=O)[C@H](Cc1ccccc1)NC(=O)[C@H](CC(C)C)NC(=O)[C@@H]1CCCN1C(=O)[C@H](CCCCN)NC(=O)[C@H](CCCCN)NC(=O)[C@H](CO)NC(=O)[C@@H](N)CCCCN)C(=O)N[C@H](Cc1c[nH]c2ccc(F)cc12)C(=O)N[C@@H](CCCCN)C(=O)N[C@@H](CO)C(=O)N[C@H](C(=O)N[C@@H](CCC(=O)O)C(=O)N[C@@H](CC(N)=O)C(=O)N[C@H](C(=O)N[C@@H](CO)C(=O)N[C@H](C(=O)N[C@@H](CC(C)C)C(=O)N[C@@H](Cc1c[nH]c2ccccc12)C(=O)N[C@@H](Cc1ccc(O)cc1)C(=O)N[C@@H](CCCCN)C(N)=O)C(C)C)C(C)C)C(C)C [NCR169C17–38C12,17/S-10W^5-F-D] (H-KSKKPLFKI[dTrp(5-F)]KSVENVSVLWYK-NH2; N-terminus assumed) | 1.6 (≈ 4.36 µg/mL) | 1.6 (≈ 4.36 µg/mL) | 1.6 (≈ 4.36 µg/mL) | 3.1 (≈ 8.45 µg/mL) | 6.3 (≈ 17.2 µg/mL) | 3.1 (≈ 8.45 µg/mL) | 3.1 (≈ 8.45 µg/mL) | 3.1 (≈ 8.45 µg/mL) | 1.6—6.3 µM |  |  |  |  |  |  |  |  | 
2 | CC[C@H](C)[C@H](NC(=O)[C@H](CCCCN)NC(=O)[C@H](Cc1ccccc1)NC(=O)[C@H](CC(C)C)NC(=O)[C@@H]1CCCN1C(=O)[C@H](CCCCN)NC(=O)[C@H](CCCCN)NC(=O)[C@H](CO)NC(=O)[C@@H](N)CCCCN)C(=O)NC(Cc1c[nH]c2ccc(OC)cc12)C(=O)N[C@@H](CCCCN)C(=O)N[C@@H](CO)C(=O)N[C@H](C(=O)N[C@@H](CCC(=O)O)C(=O)N[C@@H](CC(N)=O)C(=O)N[C@H](C(=O)N[C@@H](CO)C(=O)N[C@H](C(=O)N[C@@H](CC(C)C)C(=O)N[C@@H](Cc1c[nH]c2ccccc12)C(=O)N[C@@H](Cc1ccc(O)cc1)C(=O)N[C@@H](CCCCN)C(N)=O)C(C)C)C(C)C)C(C)C (some centres unmarked) [NCR169C17–38C12,17/S-10W^5-MeO I] (H-KSKKPLFKI[ξTrp(5-OMe)]KSVENVSVLWYK-NH2; N-terminus assumed) | 1.6 (≈ 4.38 µg/mL) | 1.6 (≈ 4.38 µg/mL) | 3.1 (≈ 8.49 µg/mL) | 1.6 (≈ 4.38 µg/mL) | 1.6 (≈ 4.38 µg/mL) |  | 1.6 (≈ 4.38 µg/mL) | 1.6 (≈ 4.38 µg/mL) |  | 1.6 |  |  |  |  |  |  |  | 
3 | KSKKPLFKIWKSVENVSVLW^5-MeOYK [NCR169C17–38C12,17/S-20W^5-MeO, NCR169C17–38C12,17/S analog with 5-methoxy tryptophan at position 20, forms not separated] |  |  |  |  |  |  |  |  | 3.1 µM |  | 3.1 | 3.1 | 3.1 | 3.1 | 3.1 | 0.8 | 3.1 | 3.1
4 | CC[C@H](C)[C@H](NC(=O)[C@H](CCCCN)NC(=O)[C@H](Cc1ccccc1)NC(=O)[C@H](CC(C)C)NC(=O)[C@@H]1CCCN1C(=O)[C@H](CCCCN)NC(=O)[C@H](CCCCN)NC(=O)[C@H](CO)NC(=O)[C@@H](N)CCCCN)C(=O)NC(Cc1c[nH]c2ncccc12)C(=O)N[C@@H](CCCCN)C(=O)N[C@@H](CO)C(=O)N[C@H](C(=O)N[C@@H](CCC(=O)O)C(=O)N[C@@H](CC(N)=O)C(=O)N[C@H](C(=O)N[C@@H](CO)C(=O)N[C@H](C(=O)N[C@@H](CC(C)C)C(=O)N[C@@H](Cc1c[nH]c2ccccc12)C(=O)N[C@@H](Cc1ccc(O)cc1)C(=O)N[C@@H](CCCCN)C(N)=O)C(C)C)C(C)C)C(C)C (some centres unmarked) [NCR169C17–38C12,17/S-10W^7-Aza II] (H-KSKKPLFKI[ξTrp(7-aza)]KSVENVSVLWYK-NH2; N-terminus assumed) | 6.3 (≈ 17.1 µg/mL) | 3.1 (≈ 8.4 µg/mL) | 3.1 (≈ 8.4 µg/mL) | 6.3 (≈ 17.1 µg/mL) | 3.1 (≈ 8.4 µg/mL) | 3.1 (≈ 8.4 µg/mL) | 3.1 (≈ 8.4 µg/mL) | 3.1 (≈ 8.4 µg/mL) |  | 3.1 |  |  |  |  |  |  |  | 
5 | CC[C@H](C)[C@H](NC(=O)[C@H](CCCCN)NC(=O)[C@H](Cc1ccccc1)NC(=O)[C@H](CC(C)C)NC(=O)[C@@H]1CCCN1C(=O)[C@H](CCCCN)NC(=O)[C@H](CCCCN)NC(=O)[C@H](CO)NC(=O)[C@@H](N)CCCCN)C(=O)NC(Cc1c[nH]c2ncccc12)C(=O)N[C@@H](CCCCN)C(=O)N[C@@H](CO)C(=O)N[C@H](C(=O)N[C@@H](CCC(=O)O)C(=O)N[C@@H](CC(N)=O)C(=O)N[C@H](C(=O)N[C@@H](CO)C(=O)N[C@H](C(=O)N[C@@H](CC(C)C)C(=O)N[C@@H](Cc1c[nH]c2ccccc12)C(=O)N[C@@H](Cc1ccc(O)cc1)C(=O)N[C@@H](CCCCN)C(N)=O)C(C)C)C(C)C)C(C)C (some centres unmarked) [NCR169C17–38C12,17/S-10W^7-Aza I] (H-KSKKPLFKI[ξTrp(7-aza)]KSVENVSVLWYK-NH2; N-terminus assumed) | 3.1 (≈ 8.4 µg/mL) | 6.3 (≈ 17.1 µg/mL) | 3.1 (≈ 8.4 µg/mL) | 6.3 (≈ 17.1 µg/mL) | 3.1 (≈ 8.4 µg/mL) | 3.1 (≈ 8.4 µg/mL) | 3.1 (≈ 8.4 µg/mL) | 3.1 (≈ 8.4 µg/mL) |  | 3.1 |  |  |  |  |  |  |  | 

From article PMC9917201, “Enhanced Antibacterial Activity of Substituted Derivatives of NCR169C Peptide” (International Journal of Molecular Sciences, 2023)
